Here are results for 21 molecules from ChEMBL document CHEMBL4706500, “Identification of dibucaine derivatives as novel potent enterovirus 2C helicase inhibitors: In vitro, in vivo, and combination therapy study” (Eur J Med Chem, 2020).

Activity calls are given as the source filed them. The rule behind the calls is not given here.

Broadly, the EC50 is the concentration needed to bring the measured effect to its halfway point. One may read the CC50 as the concentration at which the toxic effect on the cells reaches its halfway point.

The test system of data set [1] is Enterovirus A71. Description: Antiviral activity against Enterovirus A71 infected in human RD cells assessed as inhibition of viral replication measured by CCK-8 assay. Conditions: Enterovirus A. Type of data set: functional, organism-based. (In general: Tetrazolium assays rely on reduction of a dye to a coloured formazan, in cell work by metabolically active cells.)

A short description of data set [2]: Selectivity index, ratio of CC50 for human RD cells infected with Enterovirus A71 to EC50 for Enterovirus A71 infected in human RD cells. In kind it is toxicity, cell-based. The note with it: read-out: Selectivity Index.
Data set [3] concerns RD. Description: Cytotoxicity against human RD cells infected with Enterovirus A71 assessed as reduction in cell viability measured by CCK-8 assay. In kind it is functional.
Data set [4] has as its system Enterovirus A71. Kind of data set: Antiviral activity against Enterovirus A71 infected in human RD cells using HEX-labelled RNA as substrate assessed as inhibition of dsRNA unwinding by measuring accumulation of dsRNA at 0.56 uM treated 8 hpi by gel based flourescence assay. Type of data set: functional, organism-based.
The test system of data set [5] is Enterovirus A71. Kind of data set: Antiviral activity against EV-A71 GZ-C11 infected in KM mouse assessed as decrease in viral infection clinical symptoms administered 6 mg/kg, po bid for 4 days treatment started 6 hrs post infection measured on day 14 relative to control. In kind it is functional, organism-based. The note with it: time 14.0 day.
Data set [6] concerns Enterovirus A71. Kind of data set: Antiviral activity against EV-A71 GZ-C11 infected in KM mouse assessed as improvement in survival rate administered 4 mg/kg, po bid for 4 days starting 6 hrs post infection measured on day 14 (reference value: 30%). In kind it is functional. Conditions: Enterovirus A, 96 h, time 4 day.
Data set [7] concerns Enterovirus A71. Kind of data set: Antiviral activity against EV-A71 GZ-C11 infected in KM mouse assessed as prevention of death administered in presence of emetine at 6 mg/kg, po. Type of data set: functional, organism-based.
For data set [8], the system named is Enterovirus A71. Kind of data set: Antiviral activity against Enterovirus A71 infected in human RD cells using HEX-labelled RNA as substrate assessed as increase in accumulation of 2C at 4.95 uM measured after 8hpi by gel based flourescence assay. Type of data set: functional, organism-based.
Data set [9] concerns Enterovirus A71. Description: Antiviral activity against Enterovirus A71 infected in human RD cells using HEX-labelled RNA as substrate assessed as inhibition of dsRNA unwinding by measuring accumulation of dsRNA at 4.95 uM treated 8 hpi by gel based flourescence assay. Type of data set: functional, organism-based.
The subject of data set [10] is RD. Kind of data set: Inhibition of 2C ATPase helicase activity in Enterovirus A71 infected in human RD cells measured by gel electrophoresis method. In kind it is cell-based.
Data set [11] relates to Enterovirus A71. Description: Antiviral activity against Enterovirus A71 infected in African green monkey vero cells assessed as down regulation of VP1 expression measured after 24 hrs by immunofluorescence assay. Type of data set: functional, organism-based.
Data set [12] deals with Enterovirus A71. Description: Antiviral activity against Enterovirus A71 infected in human RD cells assessed as inhibition of 2C expression measured after 24 hrs by Western blot assay. In kind it is functional, organism-based. A general note: A western blot detects proteins with antibodies after separation by electrophoresis.
For data set [13], the system named is Enterovirus A71. Kind of data set: Antiviral activity against Enterovirus A71 at early stage of life cycle infected in African green monkey Vero cells assessed as VP1 expression at 3.2 uM treated 12 hpi measured upto 8 hrs by time of addition assay. Type of data set: functional, organism-based. Conditions: time hrs <=8.
Data set [14] deals with Enterovirus A71. Description: Antiviral activity against Enterovirus A71 at early stage of life cycle infected in human RD cells assessed as VP1 expression at 3.2 uM treated 12 hpi measured upto 8 hrs by time of addition assay. Type of data set: functional, organism-based. Conditions: time hrs <=8.
In data set [15] the test system is Enterovirus A71. Description: Antiviral activity against Enterovirus A71 infected in human RD cells assessed as inhibition of viral replication measured after 48 hrs by plaque assay. In kind it is functional, organism-based.
A short description of data set [16]: Toxicity in 14 day suckling KM mouse assessed as changes in weight growth at 6 mg/kg, po bid for 4 successive days measured on day 12 relative to control. Type of data set: organism-based. Conditions: in vivo, 288 h, time 12 day.
Data set [17] concerns Enterovirus A71. Kind of data set: Antiviral activity against EV-A71 GZ-C11 infected in KM mouse assessed as improvement in survival rate administered 6 mg/kg, po bid for 4 days starting 6 hrs post infection measured on day 14 (reference value: 30%). Type of data set: functional. Conditions: Enterovirus A, 96 h, time 4 day.
The subject of data set [18] is Enterovirus A71. Description: Antiviral activity against Enterovirus A71 infected in African green monkey Vero cells assessed as reduction in viral RNA titer levels at early stage of life cycle at 3.2 uM treated 12 hpi measured upto 8 hrs by time of addition assay. Conditions: time hrs <=8. In kind it is functional, organism-based.
Data set [19] has as its system Enterovirus A71. Description: Antiviral activity against Enterovirus A71 infected in human RD cells assessed as inhibition of VP1 expression measured after 24 hrs by Western blot assay. In kind it is functional, organism-based.

Consider `CCCCCOc1cc(C(=O)NCCN(C)C)c2ccccc2n1`, for which, in the data set on Enterovirus A71 [1], the EC50 was 1.58 µM. In addition, the selectivity ratio in data set [2] is 48. Further, the CC50 in the data set on RD [3] came out at 75.9 µM.

As to `CCCNC(=O)c1cc(OCCC)nc2ccccc12`, in the data set with Enterovirus A71 [1], the EC50 was over 100 µM.

For the molecule `CCN(CC)CCNC(=O)c1cc(OC)nc2ccccc12`, the EC50 in the data set with Enterovirus A71 [1] was determined as 27.7 µM. Also, the selectivity ratio in data set [2] was over 4. In addition, the CC50 in the data set with RD [3] is over 111 µM.

In the case of `CCCCOc1cc(C(=O)NCCCN(CC)CC)c2ccccc2n1`, the concentration giving a half-maximal response (EC50) in the data set with Enterovirus A71 [1] is 100 µM. Moreover, the selectivity ratio in data set [2] worked out at 64.

Turning to `CCCCOc1cc(C(=O)NCCN2CCCCC2)c2ccccc2n1`, the EC50 in the data set with Enterovirus A71 [1] was found to be 1.47 µM. In addition, the cytotoxic concentration (CC50) with RD [3] stood at 93.8 µM.

In the case of `CCCNC(=O)c1cc(OCC)nc2ccccc12`, the EC50 in the data set with Enterovirus A71 [1] stood at 2.02 µM. Besides, in data set [2], the selectivity ratio was over 34.8. The 50% cytotoxic concentration (CC50) with RD [3] is over 70.2 µM.

As to `CC(C)CNC(=O)c1cc(OC(C)C)nc2ccccc12`, the concentration for a half-maximal effect (EC50) with Enterovirus A71 [1] was determined as 58.2 µM. Moreover, the selectivity ratio in [2] was over 2. In the data set with RD [3], the CC50 was over 116 µM.

For `CCCOc1cc(C(=O)NCCN(C)C)c2ccccc2n1`, the EC50 in the data set on Enterovirus A71 [1] is 1.58 µM. In addition, in data set [2], the selectivity ratio was over 70. The CC50 with RD [3] is over 111 µM.

As to `CC(C)S(=O)(=O)n1c(N)nc2ccc(/C(=N/O)c3ccccc3)cc21` [ENVIROXIME], the outcome in the data set on Enterovirus A71 [4] was inactive. In addition, in the data set with Enterovirus A71 [1], the EC50 amounted to 0.14 µM. Besides, in [2], the selectivity ratio worked out at 200. Moreover, the CC50 in the data set on RD [3] worked out at 28 µM.

As for `CCCOc1cc(C(=O)NCCN(CC)CC)c2ccccc2n1`, the 50% effective concentration (EC50) in the data set on Enterovirus A71 [1] came to 2.37 µM. In [2], the selectivity ratio was over 42.7. Further, in the data set with RD [3], the cytotoxic concentration (CC50) is over 101 µM.

In the case of `CCCCCCOc1cc(C(=O)NCCN(CC)CC)c2ccccc2n1`, the EC50 in the data set with Enterovirus A71 [1] is 4.21 µM. Besides, in data set [2], the selectivity ratio came to 8. The CC50 in the data set with RD [3] came to 33.6 µM.

With `CCCCOc1cc(C(=O)NCCCN(C)C)c2ccccc2n1`, the half-maximal effective concentration (EC50) in the data set with Enterovirus A71 [1] came out at 100 µM.

For the molecule `CCCCOc1cc(C(=O)NCCN(C)C)c2ccccc2n1`, the result in the data set on Enterovirus A71 [5], in the data set with Enterovirus A71 [7], in the data set with Enterovirus A71 [8], in the data set with Enterovirus A71 [9], in the data set with Enterovirus A71 [11] and in the data set on Enterovirus A71 [12] was Active. In addition, the result in the data set with Enterovirus A71 [13], in the data set on Enterovirus A71 [14], in the data set with Enterovirus A71 [15], with Enterovirus A71 [18] and in the data set with Enterovirus A71 [19] was Active. Besides, in the data set with Enterovirus A71 [6], the survival at 4 mg/kg worked out at 30%. The 50% effective concentration (EC50) in the data set with Enterovirus A71 [1] is 1.24 µM. In addition, the inhibition entry in the data set with RD [10] is “Active”. In data set [2], the selectivity ratio is 85.4. Besides, the Activity entry in data set [16] is on record as “Non-Toxic”. In the data set with Enterovirus A71 [17], the survival at 6 mg/kg came out at 67%. Moreover, the half-maximal cytotoxic concentration (CC50) with RD [3] was 106 µM.

As to `CCCCCOc1cc(C(=O)NCCN(CC)CC)c2ccccc2n1`, the EC50 in the data set with Enterovirus A71 [1] was found to be 5.83 µM. Besides, the selectivity ratio in [2] was 6. Further, the 50% cytotoxic concentration (CC50) with RD [3] was 35 µM.

For `CCOc1cc(C(=O)NCCN(C)C)c2ccccc2n1`, the concentration giving a half-maximal response (EC50) with Enterovirus A71 [1] was determined as 3.62 µM. For the same molecule, the selectivity ratio in data set [2] worked out at 31.9. Further, the cytotoxic concentration (CC50) with RD [3] was found to be 116 µM.

Regarding `CCOc1cc(C(=O)NCCN(CC)CC)c2ccccc2n1`, in the data set on Enterovirus A71 [1], the half-maximal effective concentration (EC50) came out at 2.48 µM. Also, in data set [2], the selectivity ratio is over 42.7. The CC50 in the data set on RD [3] was over 106 µM.

Consider `CCCCOc1cc(C(=O)NCCN(CC)CC)c2ccccc2n1` [DIBUCAINE], for which the EC50 with Enterovirus A71 [1] worked out at 2.27 µM. Besides, the selectivity ratio in data set [2] was over 42.7. The half-maximal cytotoxic concentration (CC50) in the data set with RD [3] is over 97 µM.

On to `CCCOc1cc(C(=O)NCC(C)C)c2ccccc2n1`, for which the EC50 with Enterovirus A71 [1] was found to be 58.2 µM. The selectivity ratio in [2] stood at 1.5. In the data set on RD [3], the CC50 stood at 87.3 µM.

Regarding `CCCCCCOc1cc(C(=O)NCCN(C)C)c2ccccc2n1`, the EC50 in the data set on Enterovirus A71 [1] was determined as 2.27 µM. In addition, in [2], the selectivity ratio turned out to be 16. Moreover, the cytotoxic concentration (CC50) in the data set on RD [3] came to 36.4 µM.

As for `CCOc1cc(C(=O)NCC(C)C)c2ccccc2n1`, the concentration for a half-maximal effect (EC50) in the data set with Enterovirus A71 [1] was over 100 µM.

As to `CCCCOc1cc(C(=O)NCCN2CCCC2)c2ccccc2n1`, in the data set with Enterovirus A71 [1], the EC50 turned out to be 1.53 µM. Also, the selectivity ratio in data set [2] is over 64.1. Besides, the CC50 in the data set on RD [3] is over 97.7 µM.
